US8614333B2, “Acenaphtho heterocyclic compound and application thereof” (Dalian University of Technology, priority 2010, dated 2013)
Several values for one entry are separate records, joined by “and”; a condition that tells them apart may be missing. Equal entries are not always repeated.

Key:
His-tagged Mcl-1 protein = His-tagged Mcl-1 protein (Homo sapiens, UniProt Q07820); experiment: ELISA assay, competitive binding to Mcl-1 protein (biotin-Bim/streptavidin plate); settings: 20 nM His-tagged Mcl-1, method calculates average IC50, read-out: Mcl-1 binding constants
Description: (§1) The present inventors used fluorescence polarization assay to detect the bonding force between the protein and the compounds in a previous study (PCT/CN2010/075521). […] ELISA assay was used to detect the bonding force between the compounds and the protein in this application.
(§2) Biotinylated Bim peptide was diluted to 0.09 μg/mL in SuperBlock blocking buffer in PBS and incubated for 1.5 h in 96-well microtiter plates already coated with streptavidin to allow the formation of the complex between Biotin-Bim and streptavidin. All incubations were performed at room temperature unless otherwise noted. Each inhibitor was first dissolved in pure DMSO to obtain a 10 mM stock solution. For each tested inhibitor, different concentrations of the inhibitor were incubated with 20 nM His-tagged Mcl-1 protein in PBS for 1 h with a final DMSO concentration of 4%. The plates were washed three times with PBS containing 0.05% Tween-20. The inhibitor and protein mixture (100 μL) were transferred to the plate containing the biotin-Bim/streptavidin complex and incubated for 2 h. The plate was then washed as before and mouse anti-His antibody that conjugated with horseradish peroxidase was added into the wells and incubated for 1 h. The plate was then washed with PBS containing 0.05% Tween-20. Finally, TMB was added to each well; the enzymatic reaction was stopped after 30 min by addition of H2SO4 (100 μL, 2M). Absorbances were measured with a TECAN GENios (Swiss, TECAN) microplate reader using a wavelength of 450 nm. Three independent experiments were performed with each inhibitor to calculate average IC50 value and standard deviation (SD).
(§3) The BH3 analogous degrees of other 11 compounds were detected by using the experimental method as described above. The protein binding constant (binding constant in table 1) between them and Bcl-2 and Mcl-1 proteins were also on nM grade.

MCF-7 cells = experiment: Cytotoxicity by MTT, cells without plasmid transfection; type: cell-based; settings: Homo sapiens, MCF7; MCF-7, MTT, 48 hours; read-out: IC50 value in untransfected cells
Description: (§4) 3 μg of BAX/BAK interfering plasmid was transfected into MCF-7 cells by using calcium phosphate coprecipitation method, 24 hours later, the cells were collected. The expressions after the BAX and BAK proteins interfered with RNA was detected by Western, and the cell groups without plasmid transfection were treated similarly and were set as the control group. The transfected cells were inoculated in a 96-well plate (1×10^5 cells/well), the control experiment of the cell group without plasmid transfection was carried out in parallel. The compound 1 to be detected was added thereinto according to the concentration gradient designed before the experiment. 48 hours later, the cellular vitality was detected by MTT. The experimental results were shown in FIG. 9, Gossypol as nonspecific BH3 analogue was treated in parallel.
(§5) Other 24 compounds were also detected by the same experimental method as described above, the differences of IC50 values between the transfected cells and the without plasmid transfection cells were compared.

Mcl-1 = experiment: Western blotting, semiquantitative analysis of Mcl-1 protein bands; type: cell-based; settings: tumor cells; for concentration of the protein bands (semiquantitative, normalized), Mcl-1: control = 1
Description: (§6) The interest protein was detected by the corresponding antibody. The expression of the interest protein in the cells was detected by horseradish peroxidase-labeled secondary antibodies in combination with ECL coloration method. […] The concentration of the protein bands in the Western images were carried out semiquantitative analysis and normalization treatment with KODAK Gel Logic 1500 imaging system software.

Bcl-2 protein = Bcl-2 protein (Homo sapiens, UniProt P10415); experiment: ELISA assay, competitive binding to Bcl-2 protein (biotin-Bim/streptavidin plate); settings: method calculates average IC50, read-out: Bcl-2 binding constants
Description: as §1, §2, §3

[1] = target: T1, interaction between Bcl-2 and Bax (Homo sapiens, UniProt P10415); experiment: Intracellular FRET, Bcl-2-CFP/Bax-YFP in Hela cells; type: cell-based; settings: for Time (time period after which the interaction between Bcl-2 and Bax was interfered): at the concentration given
T1 construct: expressed in transfected cells; host or cells: Hela cells
Description: 2 μg of Bcl-2-CFP and Bax-YFP plasmids were transfected separately or simultaneously into Hela cells by using calcium phosphate coprecipitation method, 24 hours later, the cells were inoculated in a 6-well plate (2×10^5 cells/well), and the compound 1 to be detected dissolved in DMSO was added there into until the final concentration (2, 5, 10 and 15 μM) was achieved. 24 hours later (please refer to FIG. 5); the cells were washed with PBS for three times. The fluorescence value was detected by GENIOS fluorescence enzyme-labelled meter (TECAN, Swiss). In time-dependent experiment, the transfected cells were inoculated in a 6-well plate, after that, 40 μM of the compound was added thereinto. 3, 6 and 24 hours later (FIG. 6), the fluorescence intensities were detected by plate reader. As for the cell group in which only Bcl-2-CFP plasmid was transfected, the values at 475 nm emission wave length and 433 nm excitation wave length were recorded. As for the cell group in which only Bax-YFP plasmid was transfected, the values at 527 nm emission wave length and 505 nm excitation wave length were recorded. As for the cell group in which Bcl-2-CFP and Bax-YFP plasmids were co-transfected, the values at 527 nm and 475 emission wave lengths and 433 nm excitation wave length were recorded. The ratio of fluorescence intensity at 527 nm and 475 nm emission wave lengths was FRET. The FRET for the control group in which the plasmid was solely transfected was set as 1.0. […] In the cotransfected cells, the FRET increased up to 2.0 due to the interaction of Bcl-2 protein and Bax protein, and that the interference to the interaction between the two proteins increased and FRET decreased with the increase of the drug concentration and time. The cellular vitality was detected by MTT method. When the concentration of the compound reached 1 μM, the interaction between Bcl-2 and Bax can be interfered after 2 hours, and the results appeared concentration-time dependent trend.
Wherein the concentration and time meant that the detected compound interfered with the interaction between Bcl-2 and Bax at the concentration for the time period.

[2] = test system: MCF-7 cells transfected with BAX/BAK interfering plasmid; experiment: Cytotoxicity by MTT, cells transfected with BAX/BAK interfering plasmid; type: cell-based; settings: for IC50: Homo sapiens, MCF7, MCF-7 with BAX/BAK interfering plasmid, MTT, 48 hours
Description: as §4, §5

Bcl-2 = experiment: Western blotting, semiquantitative analysis of Bcl-2 protein bands; type: cell-based; settings: tumor cells; for concentration of the protein bands (semiquantitative, normalized), Bcl-2: control = 1
Description: as §6

[3] = test system: BAX shift towards the chondriosome; experiment: Co-localization between Bax protein and chondriosome, Bax-YFP in MCF-7 cells; type: cell-based; settings: for Doses (concentration at which the compound drove the BAX to shift towards the chondriosome): Bax-YFP/Mito Tracker Red; for Time (time period after which BAX shifted towards the chondriosome): at the concentration given
Description: 5 μg of Bax-YFP plasmid was transfected into MCF-7 cells by using calcium phosphate coprecipitation method, 24 hours later, the cells were inoculated in a 6-well plate (0.2×10^6 cells/well), and 10 μM of the compound 1 to be detected was added thereinto. 6 hours later, the cells were washed with PBS and hatched away from light with 50 nM Mito Tracker Red CMXRos (chondriosome specific probes; red) for 10 minutes. Then the cells were washed with PBS for three times, and the fluorescent image was scanned with Radiance2000 laser confocal microscopy (Bio-Rad, USA). Meanwhile, dual channel scanning was carried out, one channel was used to scan the green fluorescence of Bax-YFP, and the other channel was used to scan the red fluorescence of the CMXRos probe for indicating the chondriosome. […] When the Bax protein was localized on the chondriosome, the green and red fluorescence was superimposed into orange, as shown in FIG. 7.
Other 24 compounds were detected by the same experimental method as described above. […] Wherein the concentration and time meant that the detected compound simulated the BH3-only protein and driven the BAX to shift towards the chondriosome at the concentration for the time period.

Chain of Bcl-2 protein (P10415 whole entry, species assumed): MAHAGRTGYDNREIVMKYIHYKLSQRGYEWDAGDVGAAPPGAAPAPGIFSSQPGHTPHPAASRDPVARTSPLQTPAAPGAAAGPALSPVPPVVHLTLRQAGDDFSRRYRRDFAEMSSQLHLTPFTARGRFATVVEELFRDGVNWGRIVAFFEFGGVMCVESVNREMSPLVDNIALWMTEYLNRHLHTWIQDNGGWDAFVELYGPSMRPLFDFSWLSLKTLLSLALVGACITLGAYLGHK
T1 sequence (P10415 whole entry): as the sequence (P10415 whole entry, species assumed) above
Chain of His-tagged Mcl-1 protein (Q07820 whole entry): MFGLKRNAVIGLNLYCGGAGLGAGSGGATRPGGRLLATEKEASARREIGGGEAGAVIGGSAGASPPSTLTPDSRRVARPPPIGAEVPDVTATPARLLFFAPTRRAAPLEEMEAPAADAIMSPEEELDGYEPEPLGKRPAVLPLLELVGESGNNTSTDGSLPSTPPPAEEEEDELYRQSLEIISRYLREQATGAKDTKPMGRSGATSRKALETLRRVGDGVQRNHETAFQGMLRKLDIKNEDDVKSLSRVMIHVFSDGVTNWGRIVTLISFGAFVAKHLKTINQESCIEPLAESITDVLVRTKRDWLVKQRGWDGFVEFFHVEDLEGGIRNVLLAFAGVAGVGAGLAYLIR

Structure (SMILES) | IC50 (His-tagged Mcl-1 protein) [nM] | IC50 (MCF-7 cells) [nM] | concentration of the protein bands (semiquantitative, normalized), Mcl-1 (Mcl-1; 2 h) | concentration of the protein bands (semiquantitative, normalized), Mcl-1 (Mcl-1; 6 h) | inhibition against Mcl-1 (in words) (Mcl-1; Western blotting) | IC50 (Bcl-2 protein) [nM] | Doses (concentration at which the compound interfered with the interaction between Bcl-2 and Bax) [1] | Time (time period after which the interaction between Bcl-2 and Bax was interfered) [1] [h] | IC50 [2] [nM] | dependence of cytotoxicity on BAX/BAK ([2]; comparison of transfected and untransfected MCF-7 cells) | concentration of the protein bands (semiquantitative, normalized), Bcl-2 (Bcl-2; 6 h) | concentration of the protein bands (semiquantitative, normalized), Bcl-2 (Bcl-2; 12 h) | concentration of the protein bands (semiquantitative, normalized), Bcl-2 (Bcl-2; 18 h) | concentration of the protein bands (semiquantitative, normalized), Bcl-2 (Bcl-2; 24 h) | inhibition against Bcl-2 (in words) (Bcl-2; Western blotting) | Doses (concentration at which the compound drove the BAX to shift towards the chondriosome) [3] [µM] | Time (time period after which BAX shifted towards the chondriosome) [3] [h] | melting point [°C]
CCCCNC1=C2C(=NC1=O)c1cccc3cccc2c13 [Compound 1, 9-n-Butylamino-8H-acenaphtho[1,2-b]pyrrol-8-one] | 49 | 4000 | 0.79 | 0.35 | had the inhibition against these two proteins | 142 | 1 µM and 1.0 µM | 2 | > 50000 | absolute dependence on BAX/BAK | 0.99 | 0.99 | 0.58 | 0.21 | had the inhibition against these two proteins | 1.0 | 3 | 
CCCCCCNC1=C2C(=NC1=O)c1cccc3cccc2c13 [Compound 2, 9-n-Hexylamino-acenaphtho[1,2-b]pyrrol-8-one] | 25 | 3500 | 0.70 | 0.31 |  | 28 | 0.4 µM | 3 | > 50000 |  | 0.99 | 0.99 | 0.50 | 0.19 |  | 0.5 | 3 | 234 to 235
O=C1N=C2C(=C1NCCCc1ccccc1)c1cccc3cccc2c13 [Compound 3, 9-(3-Phenyl-propylamino)-acenaphtho[1,2-b]pyrrol-8-one] | 14 | 3000 | 0.65 | 0.29 |  | 8 | 0.2 µM | 2 | > 50000 |  | 0.99 | 0.99 | 0.49 | 0.18 |  | 0.2 | 2 | 252 to 253
CCOc1ccc2c3c(cccc13)C1=NC(=O)C(NCCCc3ccccc3)=C12 [Compound 4, 3-Ethoxy-9-(3-phenyl-propylamino)-acenaphtho[1,2-b]pyrrol-8-one] | 95 | 5600 |  |  |  | 35 | 1.0 µM | 5 | > 50000 |  |  |  |  |  |  | 3.0 | 4 | 250 to 251
CCCCNC1=C2C(=NC1=O)c1cccc3c(C(=O)c4ccccc4)ccc2c13 [Compound 5, 3-Benzoyl-9-butylamino-acenaphtho[1,2-b]pyrrol-8-one] | 125 | 6500 |  |  |  | 65 | 2.0 µM | 6 | > 50000 |  |  |  |  |  |  | 5.0 | 5 | 262 to 263
CCCCN(C)C1=C2C(=NC1=O)c1cccc3cccc2c13 [Compound 6, 9-(Butyl-methyl-amino)-acenaphtho[1,2-b]pyrrol-8-one] | 66 | 4000 |  |  |  | 45 | 2.0 µM | 5 | > 50000 |  |  |  |  |  |  | 4.0 | 4 | 245 to 246
